Key:
Format in all cases: functional
[1] = test system: Hepatitis B virus; assay: Antiviral activity against Hepatitis B virus infected in human HepG2.2.15 cells assessed as inhibition of HBeAg secretion at 5 uM after 9 days by ELISA relative to control; conditions: HepG2.2.15, 216 h
[2] = test system: HepG2 2.2.15; assay: Cytotoxicity against human HepG2.2.15 cells after 9 days by MTT assay; conditions: HepG2 2.2.15, 216 h
[3] = test system: Hepatitis B virus; assay: Antiviral activity against Hepatitis B virus infected in human HepG2.2.15 cells assessed as inhibition of HBsAg secretion at 5 uM after 9 days by ELISA relative to control; conditions: HepG2.2.15, 216 h

| SMILES | inhibition at 5 µM [1] | CC50 [2] | inhibition at 5 µM [3] |
| --- | --- | --- | --- |
| [N-]=[N+]=N[C@]1(CO)O[C@@H](n2cc(CO)nn2)[C@@H](F)[C@@H]1O | 10.8% | > 1000 µM | 21.5% |
| COC(=O)c1cn([C@@H]2O[C@@](CO)(N=[N+]=[N-])[C@@H](O)[C@@H]2F)nn1 | 12.3% | 115 µM | 22% |

From ChEMBL document CHEMBL4251574, “Design, synthesis, and biological evaluation of new 1,2,3-triazolo-2'-deoxy-2'-fluoro- 4'-azido nucleoside derivatives as potent anti-HBV agents” (Eur J Med Chem, 2018)
